Assay results from PubChem BioAssay (NCI).
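Cells were grown in 96-well plates and exposed to each compound for 48 hours at five concentrations; endpoints were interpolated linearly between bracketing concentrations, or set to the highest concentration if not reached. TGI denotes the concentration required for complete inhibition of growth.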

Key:
Assay in all cases: DTP human tumour cell line panel, 48 h
OVCAR-8 ovarian = system: OVCAR-8 ovarian
IGROV1 ovarian = system: IGROV1 ovarian
BT-549 breast = system: BT-549 breast
DU-145 prostate = system: DU-145 prostate
UO-31 renal = system: UO-31 renal
EKVX NSCLC = system: EKVX NSCLC
ACHN renal = system: ACHN renal
SR leukemia = system: SR leukemia
SN12C renal = system: SN12C renal
SK-OV-3 ovarian = system: SK-OV-3 ovarian
MCF7 breast = system: MCF7 breast
OVCAR-5 ovarian = system: OVCAR-5 ovarian
A498 renal = system: A498 renal
SF-268 CNS = system: SF-268 CNS
HCT-15 colon = system: HCT-15 colon
SK-MEL-28 melanoma = system: SK-MEL-28 melanoma
MOLT-4 leukemia = system: MOLT-4 leukemia
TK-10 renal = system: TK-10 renal
SW-620 colon = system: SW-620 colon
U251 CNS = system: U251 CNS
NCI-H226 lung = system: NCI-H226 lung
NCI-H23 lung = system: NCI-H23 lung
K-562 leukemia = system: K-562 leukemia
HT29 colon = system: HT29 colon
786-0 renal = system: 786-0 renal
CAKI-1 renal = system: CAKI-1 renal
MDA-N = system: MDA-N
HCC-2998 colon = system: HCC-2998 colon
UACC-257 melanoma = system: UACC-257 melanoma
OVCAR-4 ovarian = system: OVCAR-4 ovarian
HOP-92 NSCLC = system: HOP-92 NSCLC
A549 NSCLC = system: A549 NSCLC
PC-3 prostate = system: PC-3 prostate
T-47D breast = system: T-47D breast
LOX IMVI melanoma = system: LOX IMVI melanoma
MALME-3M melanoma = system: MALME-3M melanoma
SNB-19 CNS = system: SNB-19 CNS
OVCAR-3 ovarian = system: OVCAR-3 ovarian
NCI/ADR-RES ovarian = system: NCI/ADR-RES ovarian
RPMI-8226 leukemia = system: RPMI-8226 leukemia
RXF 393 renal = system: RXF 393 renal
MDA-MB-231 breast = system: MDA-MB-231 breast
HS 578T breast = system: HS 578T breast
SK-MEL-5 melanoma = system: SK-MEL-5 melanoma
HOP-62 NSCLC = system: HOP-62 NSCLC
SK-MEL-2 melanoma = system: SK-MEL-2 melanoma
UACC-62 melanoma = system: UACC-62 melanoma
NCI-H522 lung = system: NCI-H522 lung
KM12 colon = system: KM12 colon
MDA-MB-435 = system: MDA-MB-435
SNB-75 CNS = system: SNB-75 CNS
M14 melanoma = system: M14 melanoma
HCT-116 colon = system: HCT-116 colon
NCI-H460 lung = system: NCI-H460 lung
SF-539 CNS = system: SF-539 CNS
SF-295 CNS = system: SF-295 CNS
COLO 205 colon = system: COLO 205 colon
CCRF-CEM leukemia = system: CCRF-CEM leukemia
HL-60(TB) leukemia = system: HL-60(TB) leukemia

Measured: TGI

COc1ccc(C(=O)O[C@H]2CC[C@@]3(C)[C@@H]4CC[C@H]5[C@]6(O)C[C@H](O)[C@@]7(O)[C@@H](CN8C[C@@H](C)CC[C@H]8[C@@]7(C)O)[C@]6(O)C[C@@]53OC24O)cc1OC
not listed: CCRF-CEM leukemia | HL-60(TB) leukemia
> 100 µM: all other assays above

c1ccc2c(c1)nc1n2CSCC1
not listed: MALME-3M melanoma | NCI-H522 lung
> 100 µM: all other assays above
